Measurements published in patent publication US11174260B2, “Compounds and methods for the treatment of parasitic diseases” (THE BROAD INSTITUTE, INC., priority 2017, dated 2021).

How the values were obtained:
C. parvum = C. parvum in vitro EC50 assay; type: cell-based; settings: Cryptosporidium parvum; C. parvum oocysts in HCT-8 cells
Experimental: Human ileocecal adenocarcinoma (HCT-8) cells were obtained from ATCC and maintained in T-75 tissue culture flasks with RPMI 1640 medium with HEPES, sodium pyruvate (1 mM), and L-glutamine (ATCC) supplemented with 10% horse serum (ATCC) and 120 U/ml penicillin and 120 μg/ml streptomycin. Cells were plated into 384-well, tissue culture-treated, black-walled, clearbottom microwell plates (BD Falcon) at a density of 8,850 cells/well and allowed to grow to confluence. They were then inoculated with 5.5×10^3 primed C. parvum oocysts (Bunchgrass Farms, Deary, Id.) suspended in inoculation medium (RPMI 1640 without horse serum). Oocysts were primed for excystation by following a previously described protocol (J. Eukaryot. Microbiol. 46:56S-57S). Briefly, oocysts were treated for 10 min with 10 mM HCl at 37° C., centrifuged, and treated with a 2 mM solution of sodium taurocholate (Sigma-Aldrich) in phosphate-buffered saline (PBS) with Ca^2+ and Mg^2+. The suspension was incubated for 10 min at 16° C. and then diluted in inoculation medium and added to each well. Infected cells were incubated at 37° C. for 3 h, at which point an equal volume of growth medium containing 20% horse serum (total serum concentration of 10%). Compounds were diluted and assayed at fixed doses of 0.12, 0.37, 1.1, 3.3, and 10 μM (each concentration, n=14) for the generation of EC50 curves. In the case of final EC50 curves, three wells were left uninfected but treated with each of the corresponding concentrations of the compound to assess for background staining. All curves were generated using the log[inhibitor] versus response_variable slope equation in GraphPad Prism (equation 3), with the bottom constraint set equal to 0.

P. falciparum Dd2 = assay: In vitro P. falciparum blood-stage culture and assay; type: cell-based; settings: Plasmodium falciparum, DD2, 72 h, 72 h incubation, SYBR Green I readout, read-out: Pf Dd2
Experimental: Strains of P. falciparum (Dd2, 3D7, D6, K1, NF54, V1/3, HB3, 7G8, FCB and TM90C2B) were obtained from the Malaria Research and Reference Reagent Resource Center (MR4). P. falciparum isolates were maintained with O-positive human blood in an atmosphere of 93% N2, 4% CO2, 3% O2 at 37° C. in complete culturing medium (10.4 g/L RPMI 1640, 5.94 g/L HEPES, 5 g/L albumax II, 50 mg/L hypoxanthine, 2.1 g/L sodium bicarbonate, 10% human serum and 43 mg/L gentamicin). Parasites were cultured in medium until parasitaemia reached 3-8%. Parasitaemia was determined by checking at least 500 red blood cells from a Giemsa-stained blood smear. For the compound screening, a parasite dilution at 2.0% parasitaemia and 2.0% haematocrit was created with medium. 25 μl of medium was dispensed into 384-well black, clear-bottom plates and 100 nl of each compound in DMSO was transferred into assay plates along with the control compound (mefloquine). Next, 25 μl of the parasite suspension in medium was dispensed into the assay plates giving a final parasitaemia of 1% and a final haematocrit of 1%. The assay plates were incubated for 72 h at 37° C. 10 μl of detection reagent consisting of 10×SYBR Green I (Invitrogen; supplied in 10,000× concentration) in lysis buffer (20 mM Tris-HCl, 5 mM EDTA, 0.16% (w/v) Saponin, 1.6% (v/v) Triton X-100) was dispensed into the assay plates. For optimal staining, the assay plates were left at room temperature for 24 h in the dark. The assay plates were read with 505 dichroic mirrors with 485 nm excitation and 530 nm emission settings in an Envision (PerkinElmer).

| Structure (SMILES) | EC50 (C. parvum) [nM] | EC50 (P. falciparum Dd2) [nM] |
| --- | --- | --- |
| COc1ccc(NC(=O)N2C/C=C\CN3[C@H](CN(C)C)[C@H](c4ccc(C#Cc5ccccc5)cc4)[C@@H]3C2)cc1 [Example E4, (3Z,8R,9S,10S)-10-[(dimethylamino)methyl]-N-(4-methoxyphenyl)-9-[4-(2-phenylethynyl)phenyl]-1,6-diazabicyclo[6.2.0]dec-3-ene-6-carboxamide] | 68 | < 50 |
| COc1ccc(NC(=O)N2C[C@H](O)[C@H](O)CN3[C@H](CN(C)C)[C@H](c4ccc(C#Cc5ccccc5)cc4)[C@@H]3C2)cc1 [Example E6, (3R,4S,8R,9S,10S)-10-((dimethylamino)methyl)-3,4-dihydroxy-N-(4-methoxyphenyl)-9-(4-(phenylethynyl)phenyl)-1,6-diazabicyclo[6.2.0]decane-6-carboxamide] | 95 | < 50 |
| COc1ccc(NC(=O)N2CC[C@H](O)CN3[C@H](CN(C)C)[C@H](c4ccc(C#Cc5ccccc5)cc4)[C@@H]3C2)cc1 [Example E15, (3S,8R,9S,10S)-10-[(dimethylamino)methyl]-3-hydroxy-N-(4-methoxyphenyl)-9-[4-(2-phenylethynyl)phenyl]-1,6-diazabicyclo[6.2.0]decane-6-carboxamide] | 33 | < 50 |
| COc1ccc(NC(=O)N2CCC(CO)CN3[C@H](CN(C)C)[C@H](c4ccc(C#Cc5ccccc5)cc4)[C@@H]3C2)cc1 (stereo partly drawn) [Example E26, (8R,9S,10S)-10-[(dimethylamino)methyl]-3-(hydroxymethyl)-N-(4-methoxyphenyl)-9-[4-(2-phenylethynyl)phenyl]-1,6-diazabicyclo[6.2.0]decane-6-carboxamide] | 98 | < 50 |
| COc1ccc(NC(=O)N2CCC(CN(C)C)CN3[C@H](CO)[C@H](c4ccc(C#Cc5ccccc5)cc4)[C@@H]3C2)cc1 (stereo partly drawn) [Example E27, (8R,9R,10S)-3-[(dimethylamino)methyl]-10-(hydroxymethyl)-N-(4-methoxyphenyl)-9-[4-(2-phenylethynyl)phenyl]-1,6-diazabicyclo[6.2.0]decane-6-carboxamide] | 134 | < 50 |
| COc1ccc(NC(=O)N2CC(CO)CCN3[C@H](CN(C)C)[C@H](c4ccc(C#Cc5ccccc5)cc4)[C@@H]3C2)cc1 (stereo partly drawn) [Example E33, (8R,9S,10S)-10-[(dimethylamino)methyl]-4-(hydroxymethyl)-N-(4-methoxyphenyl)-9-[4-(2-phenylethynyl)phenyl]-1,6-diazabicyclo[6.2.0]decane-6-carboxamide] | – | < 50 |
| COc1ccc(NC(=O)N2CCCC(C)N3[C@H](CN(C)C)[C@H](c4ccc(C#Cc5ccccc5)cc4)[C@@H]3C2)cc1 (stereo partly drawn) [Example E34, (8R,9S,10S)-10-((dimethylamino)methyl)-N-(4-methoxyphenyl)-2-methyl-9-(4-(phenylethynyl)phenyl)-1,6-diazabicyclo[6.2.0]decane-6-carboxamide] | – | < 50 |
| COc1ccc(NC(=O)N2CCCC(C)N3[C@H](CO)[C@H](c4ccc(C#Cc5ccccc5)cc4)[C@@H]3C2)cc1 (stereo partly drawn) [Example E35, (8R,9R,10S)-10-(hydroxymethyl)-N-(4-methoxyphenyl)-2-methyl-9-[4-(2-phenylethynyl)phenyl]-1,6-diazabicyclo[6.2.0]decane-6-carboxamide] | – | < 50 |
| COc1ccc(NC(=O)N2C[C@@H](O)[C@@H](O)CN3C[C@H](c4ccc(C#Cc5ccccc5)cc4)[C@@H]3C2)cc1 [Example E36, (3S,4R,8R,9S)-3,4-dihydroxy-N-(4-methoxyphenyl)-9-[4-(2-phenylethynyl)phenyl]-1,6-diazabicyclo[6.2.0]decane-6-carboxamide] | 6 | 50 to 250 |
| COc1ccc(NC(=O)N2C[C@H](O)[C@H](O)CN3C[C@H](c4ccc(C#Cc5ccccc5)cc4)[C@@H]3C2)cc1 [Example E37, (3R,4S,8R,9S)-3,4-dihydroxy-N-(4-methoxyphenyl)-9-[4-(2-phenylethynyl)phenyl]-1,6-diazabicyclo[6.2.0]decane-6-carboxamide] | – | 50 to 250 |
| CN(C)C[C@@H]1[C@H](c2ccc(C#Cc3ccccc3)cc2)[C@@H]2CN(C(=O)Nc3ccc(OC4CC4)cc3)C[C@H](O)[C@H](O)CN12 [Example E38, (3R,4S,8R,9S,10S)-N-(4-cyclopropoxyphenyl)-10-((dimethylamino)methyl)-3,4-dihydroxy-9-(4-(phenylethynyl)phenyl)-1,6-diazabicyclo[6.2.0]decane-6-carboxamide] | – | < 50 |
